This assay has as its system P388 leukemia ip, CD2F1 mice, survival T/C. Briefly: NCI In Vivo Anticancer Drug Screen. Data for tumor model P388 Leukemia (intraperitoneal) in CD2F1 (CDF1) mice. The following applies: endpoint: median survival time, higher = longer survival. Summed up:
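Mice carrying the transplanted tumor received test compound or vehicle. Survival was recorded in each group, and the value is the treated-group measurement divided by that of the vehicle-treated control group.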

Where [1] appears, read: dose: 60.0 mg/kg/injection, schedule: Q01DX005 (ip), vehicle: saline with Tween-80.
Setting [2] is: dose: 120.0 mg/kg/injection, schedule: Q01DX005 (ip), vehicle: saline with Tween-80.
The mark [3] stands for this setting: dose: 240.0 mg/kg/injection, schedule: Q01DX005 (ip), vehicle: saline with Tween-80.
The mark [4] stands for this setting: dose: 50.0 mg/kg/injection, schedule: Q01DX005 (ip), vehicle: Klucel (hydroxypropylcellulose) (HPC).
Where [5] appears, read: dose: 12.5 mg/kg/injection, schedule: Q01DX005 (ip), vehicle: saline.
Where [6] appears, read: dose: 25.0 mg/kg/injection, schedule: Q01DX005 (ip), vehicle: saline.
[7] abbreviates: dose: 50.0 mg/kg/injection, schedule: Q01DX005 (ip), vehicle: saline.
[8] abbreviates: dose: 50.0 mg/kg/injection, schedule: Q04DX003 (ip), vehicle: saline with Tween-80.
Where [9] appears, read: dose: 100.0 mg/kg/injection, schedule: Q04DX003 (ip), vehicle: saline with Tween-80.

Several values for one entry are separate records, joined by “and”; a condition that tells them apart may be missing. Equal values may be shown once. Toxic doses and inconclusive results are not listed.

Turning to `C=CCC1(C)C(=O)CCC1=O`, the T/C runs as follows: under setting [1], 110 % of control; under setting [2], 102 % of control; under setting [3], 98 % of control.

With `O=C1SC/C(=N\N=c2/scc(-c3ccccc3)n2-c2ccc(Br)cc2)N1Cc1ccccc1`, the T/C (dose: 100.0 mg/kg/injection, schedule: Q04DX002 (ip), vehicle: Klucel (hydroxypropylcellulose) (HPC)) was 86 % of control and the T/C (dose: 200.0 mg/kg/injection, schedule: Q04DX002 (ip), vehicle: Klucel (hydroxypropylcellulose) (HPC)) was 91 % of control.

With `CCOC(=O)NOP(=O)(N1CC1(C)C)N1CC1(C)C` (configuration not stated), the T/C is, setting by setting: (dose: 62.5 mg/kg/injection, schedule: Q01DX001 (ip), vehicle: saline + alcohol) 107 % of control; (dose: 125.0 mg/kg/injection, schedule: Q01DX001 (ip), vehicle: saline + alcohol) 117 % of control; (dose: 250.0 mg/kg/injection, schedule: Q01DX001 (ip), vehicle: other) 150 % of control; (dose: 250.0 mg/kg/injection, schedule: Q01DX001 (ip), vehicle: saline + alcohol) 120 % of control; (dose: 500.0 mg/kg/injection, schedule: Q01DX001 (ip), vehicle: other) 163 % of control; (dose: 500.0 mg/kg/injection, schedule: Q01DX001 (ip), vehicle: saline + alcohol) 150 % of control.

As to `CN(C)C12CCCCCCC1S(=O)(=O)C2` (configuration not stated), the T/C is 98 % of control (dose: 25.0 mg/kg/injection, schedule: Q04DX002 (ip), vehicle: saline with Tween-80); 98 % of control (dose: 50.0 mg/kg/injection, schedule: Q04DX002 (ip), vehicle: saline with Tween-80); 102 % of control and 96 % of control (dose: 100.0 mg/kg/injection, schedule: Q04DX002 (ip), vehicle: saline with Tween-80).

Regarding `Clc1ccc2c(NCCC3CCCN4CCCCC34)ccnc2c1` (configuration not stated), the T/C was 100 % of control (dose: 12.5 mg/kg/injection, schedule: Q01DX005 (ip), vehicle: Klucel (hydroxypropylcellulose) (HPC)); 103 % of control (dose: 25.0 mg/kg/injection, schedule: Q01DX005 (ip), vehicle: Klucel (hydroxypropylcellulose) (HPC)); 100 % of control and 97 % of control under setting [4].

On to `COc1ccccc1NC(=O)c1cc2cc(Br)ccc2cc1O`, for which the T/C by setting is: under setting [1], 100 % of control; under setting [2], 102 % of control; under setting [3], 108 % of control.

For the molecule `COc1cc(C=C2C(=O)C=CC2=O)cc(OC)c1OC`, the T/C (dose: 1.25 mg/kg/injection, schedule: Q04DX002 (ip), vehicle: saline with Tween-80) was 107 % of control; the T/C (dose: 2.5 mg/kg/injection, schedule: Q04DX002 (ip), vehicle: saline with Tween-80) is 99 % of control; the T/C (dose: 5.0 mg/kg/injection, schedule: Q04DX002 (ip), vehicle: saline with Tween-80) was 104 % of control.

Regarding `O=C1C2C3C=CC(O3)C2C(=O)N1O` (configuration not stated), the T/C was 102 % of control (dose: 3.13 mg/kg/injection, schedule: Q01DX009 (ip), vehicle: water); 112 % of control (dose: 6.25 mg/kg/injection, schedule: Q01DX009 (ip), vehicle: water); 121 % of control (dose: 12.5 mg/kg/injection, schedule: Q01DX009 (ip), vehicle: water); 118 % of control (dose: 25.0 mg/kg/injection, schedule: Q01DX009 (ip), vehicle: water); 105 % of control (dose: 50.0 mg/kg/injection, schedule: Q01DX009 (ip), vehicle: water).

As for `CCCS(=O)(=O)N/N=C(\C)c1cccs1`, the T/C (dose: 50.0 mg/kg/injection, schedule: Q01DX009 (ip), vehicle: Klucel (hydroxypropylcellulose) (HPC)) was 95 % of control and the T/C (dose: 100.0 mg/kg/injection, schedule: Q01DX009 (ip), vehicle: Klucel (hydroxypropylcellulose) (HPC)) was 87 % of control.

Consider `COc1ccc2c(C(=O)O)cc3c4ccccc4ncc3c2c1`, for which the T/C runs as follows: (dose: 12.5 mg/kg/injection, schedule: Q01DX009 (ip), vehicle: distilled water + Tween-80) 100 % of control; (dose: 25.0 mg/kg/injection, schedule: Q01DX009 (ip), vehicle: distilled water + Tween-80) 95 % of control; (dose: 50.0 mg/kg/injection, schedule: Q01DX009 (ip), vehicle: distilled water + Tween-80) 98 % of control; (dose: 100.0 mg/kg/injection, schedule: Q01DX009 (ip), vehicle: distilled water + Tween-80) 96 % of control; (dose: 200.0 mg/kg/injection, schedule: Q01DX009 (ip), vehicle: distilled water + Tween-80) 99 % of control.

For `COC(=O)/C=C/N1CCCC1`, the T/C was 101 % of control (dose: 25.0 mg/kg/injection, schedule: Q01DX009 (ip), vehicle: saline with Tween-80); 108 % of control (dose: 50.0 mg/kg/injection, schedule: Q01DX009 (ip), vehicle: saline with Tween-80); 101 % of control (dose: 100.0 mg/kg/injection, schedule: Q01DX009 (ip), vehicle: saline with Tween-80); 92 % of control (dose: 200.0 mg/kg/injection, schedule: Q01DX009 (ip), vehicle: saline with Tween-80).

With `COc1ccc(C(=O)C(CN(C)C)CN(C)C)cc1OC`, the T/C by setting is: (dose: 6.25 mg/kg/injection, schedule: Q01DX005 (ip), vehicle: saline) 113 % of control; under setting [5], 117 % of control and 124 % of control; under setting [6], 117 % of control and 121 % of control; under setting [7], 112 % of control.

On to `CCOC(=O)Cn1c(O)c(C2=c3cc(Br)ccc3=NC2=O)sc1=O`, for which the T/C runs as follows: (dose: 100.0 mg/kg/injection, schedule: Q01DX001 (ip), vehicle: Klucel (hydroxypropylcellulose) (HPC)) 95 % of control; (dose: 200.0 mg/kg/injection, schedule: Q01DX001 (ip), vehicle: Klucel (hydroxypropylcellulose) (HPC)) 98 % of control; (dose: 400.0 mg/kg/injection, schedule: Q01DX001 (ip), vehicle: Klucel (hydroxypropylcellulose) (HPC)) 99 % of control.

On to `CCNC(C)(C)C(SS)c1ccc(C(F)(F)F)cc1` (configuration not stated), for which the T/C is 100 % of control (dose: 12.5 mg/kg/injection, schedule: Q04DX003 (ip), vehicle: saline with Tween-80); 110 % of control (dose: 25.0 mg/kg/injection, schedule: Q04DX003 (ip), vehicle: saline with Tween-80); 110 % of control under setting [8]; 100 % of control under setting [9]; 109 % of control (dose: 400.0 mg/kg/injection, schedule: Q04DX003 (ip), vehicle: saline with Tween-80).

For `CCCCCCCC(=O)NN`, the T/C was 96 % of control (dose: 12.5 mg/kg/injection, schedule: Q01DX009 (ip), vehicle: suspension in saline); 96 % of control (dose: 25.0 mg/kg/injection, schedule: Q01DX009 (ip), vehicle: suspension in saline); 97 % of control (dose: 50.0 mg/kg/injection, schedule: Q01DX009 (ip), vehicle: suspension in saline); 96 % of control (dose: 100.0 mg/kg/injection, schedule: Q01DX009 (ip), vehicle: suspension in saline).

Consider `CCOC(=O)/C(=C/C(C#N)=C/N(C)C)CC`, for which the T/C was 104 % of control under setting [8]; 95 % of control under setting [9]; 109 % of control (dose: 200.0 mg/kg/injection, schedule: Q04DX003 (ip), vehicle: saline with Tween-80).

Consider `COc1cc(NCC(C)(O)CN(CC(C)C)C(C)C)c2ncccc2c1` (configuration not stated), for which the T/C by setting is: under setting [5], 97 % of control; under setting [6], 103 % of control; under setting [7], 106 % of control and 109 % of control.

As to `O=C(NC(=O)c1cccc2ccccc12)NC(=S)c1ccccc1`, the T/C reads like this: (dose: 100.0 mg/kg/injection, schedule: Q01DX001 (ip), vehicle: saline) 92 % of control; (dose: 200.0 mg/kg/injection, schedule: Q01DX001 (ip), vehicle: saline) 88 % of control; (dose: 400.0 mg/kg/injection, schedule: Q01DX001 (ip), vehicle: saline) 86 % of control.

In the case of `S=C=NP1(N=C=S)=NP(N=C=S)(N=C=S)=NP(N=C=S)(N=C=S)=N1` (configuration not stated), the T/C runs as follows: under setting [4], 107 % of control; (dose: 100.0 mg/kg/injection, schedule: Q01DX005 (ip), vehicle: Klucel (hydroxypropylcellulose) (HPC)) 97 % of control.

On to `O=C(CBr)Oc1ccc([N+](=O)[O-])cc1`, for which the T/C was 102 % of control (dose: 50.0 mg/kg/injection, schedule: Q01DX005 (ip), vehicle: saline with Tween-80); 100 % of control (dose: 100.0 mg/kg/injection, schedule: Q01DX005 (ip), vehicle: saline with Tween-80); 100 % of control (dose: 200.0 mg/kg/injection, schedule: Q01DX005 (ip), vehicle: saline with Tween-80).

As to `CCc1cccc(C)c1N1C(=O)C(=O)C(c2nc3ccccc3o2)/C(=N\NS(=O)(=O)c2ccc(C)cc2)C1=O` (configuration not stated), the T/C runs as follows: under setting [1], 98 % of control; under setting [2], 100 % of control; under setting [3], 97 % of control.
